pIC50: −log10 of the molar value.
Columns and labels:
[1] = target: T1, Tyrosine-protein phosphatase non-receptor type 1 (Homo sapiens, UniProt P18031); experiment: Inhibition of recombinant PTP1B (unknown origin) expressed in Escherichia coli using pNPP as substrate measured after 30 mins
T1 sequence (P18031 whole entry): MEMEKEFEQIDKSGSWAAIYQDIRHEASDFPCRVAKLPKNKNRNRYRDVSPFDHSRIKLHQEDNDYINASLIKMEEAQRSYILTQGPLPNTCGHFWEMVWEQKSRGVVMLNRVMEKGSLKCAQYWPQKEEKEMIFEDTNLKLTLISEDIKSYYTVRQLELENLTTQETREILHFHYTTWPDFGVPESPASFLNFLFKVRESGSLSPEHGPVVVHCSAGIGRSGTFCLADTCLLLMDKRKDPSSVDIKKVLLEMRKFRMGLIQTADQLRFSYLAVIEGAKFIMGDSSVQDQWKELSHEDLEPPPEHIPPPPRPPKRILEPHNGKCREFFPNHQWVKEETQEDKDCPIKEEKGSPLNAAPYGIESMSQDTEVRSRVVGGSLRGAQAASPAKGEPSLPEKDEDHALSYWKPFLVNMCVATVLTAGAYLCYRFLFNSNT

[2] = target: T2, Tyrosine-protein phosphatase non-receptor type 2 (Homo sapiens, UniProt P17706); experiment: Inhibition of recombinant TCPTP (unknown origin) using pNPP as substrate measured after 30 mins
T2 sequence (P17706 whole entry): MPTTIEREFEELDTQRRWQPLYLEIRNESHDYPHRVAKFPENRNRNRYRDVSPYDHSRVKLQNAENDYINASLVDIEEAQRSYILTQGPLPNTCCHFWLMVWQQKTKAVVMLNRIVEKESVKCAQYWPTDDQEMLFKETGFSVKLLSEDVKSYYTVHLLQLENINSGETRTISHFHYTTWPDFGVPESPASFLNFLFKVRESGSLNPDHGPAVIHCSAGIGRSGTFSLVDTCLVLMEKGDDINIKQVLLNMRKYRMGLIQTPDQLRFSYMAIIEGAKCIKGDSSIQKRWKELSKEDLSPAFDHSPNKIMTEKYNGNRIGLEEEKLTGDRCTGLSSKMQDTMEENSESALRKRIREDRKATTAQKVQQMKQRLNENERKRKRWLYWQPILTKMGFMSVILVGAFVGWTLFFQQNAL

[3] = target: T3, Tyrosine-protein phosphatase non-receptor type 11 (Homo sapiens, UniProt Q06124); experiment: Inhibition of recombinant SHP2 (unknown origin) using pNPP as substrate measured after 30 mins
T3 sequence (Q06124 whole entry): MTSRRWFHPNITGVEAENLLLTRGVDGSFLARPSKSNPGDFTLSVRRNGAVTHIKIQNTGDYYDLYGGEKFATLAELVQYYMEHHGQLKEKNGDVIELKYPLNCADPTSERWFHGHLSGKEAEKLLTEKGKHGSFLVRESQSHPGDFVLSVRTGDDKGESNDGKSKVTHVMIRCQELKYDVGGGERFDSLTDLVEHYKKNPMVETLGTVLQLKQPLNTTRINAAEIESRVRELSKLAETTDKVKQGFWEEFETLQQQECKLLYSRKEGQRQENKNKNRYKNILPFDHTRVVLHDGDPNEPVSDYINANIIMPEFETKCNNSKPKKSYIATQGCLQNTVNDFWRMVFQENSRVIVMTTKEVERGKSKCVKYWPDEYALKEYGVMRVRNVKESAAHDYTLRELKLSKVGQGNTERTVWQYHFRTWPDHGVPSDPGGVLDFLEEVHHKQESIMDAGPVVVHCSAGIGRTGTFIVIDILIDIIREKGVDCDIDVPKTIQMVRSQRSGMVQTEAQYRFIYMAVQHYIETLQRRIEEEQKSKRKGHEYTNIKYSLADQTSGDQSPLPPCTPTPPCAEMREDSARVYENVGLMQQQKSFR

[4] = Apparent permeability of compound at 20 uM at pH 7.4 after 16 hrs by PAMPA; type: physicochemical
Homo sapiens [5] = species: Homo sapiens; experiment: Selectivity ratio of IC50 for recombinant TCPTP (unknown origin) to IC50 for recombinant PTP1B (unknown origin) expressed in Escherichia coli
Homo sapiens [6] = species: Homo sapiens; experiment: Selectivity ratio of IC50 for recombinant SHP2 (unknown origin) to IC50 for recombinant PTP1B (unknown origin) expressed in Escherichia coli

Row | SMILES | pIC50 [1] | also measured
1 | CCOS(=O)(=O)/C=C/c1ccc(Oc2ccc(/C=C/S(=O)(=O)OCC)cc2)cc1 | 4.93 | –
2 | CCOS(=O)(=O)/C=C/c1ccc(OCOc2ccc(/C=C/S(=O)(=O)OCC)cc2)cc1 | 5.06 | –
3 | CCOS(=O)(=O)/C=C/c1ccc(OCc2ccc(COc3ccc(/C=C/S(=O)(=O)OCC)cc3)c(C(=O)Nc3ccc(Oc4ccc5ccccc5c4)cc3)c2)cc1 | 6.10 | –
4 | CCOS(=O)(=O)/C=C/c1ccc(OCc2ccc(COc3ccc(/C=C/S(=O)(=O)OCC)cc3)c(C(=O)Nc3ccc(Oc4ccc(C(F)(F)F)cc4)cc3)c2)cc1 | 6.09 | –
5 | CCOS(=O)(=O)/C=C/c1ccc(OCCCOc2ccc(/C=C/S(=O)(=O)OCC)cc2)cc1 | 4.43 | –
6 | CCOS(=O)(=O)/C=C/c1ccc(OCc2ccc(COc3ccc(/C=C/S(=O)(=O)OCC)cc3)c(C(=O)Nc3ccc(Oc4ccc(C(C)(C)C)cc4)cc3)c2)cc1 | 6.04 | –
7 | CCOS(=O)(=O)/C=C/c1ccc(OCc2ccc(COc3ccc(/C=C/S(=O)(=O)OCC)cc3)c(C(=O)Nc3ccc(Oc4cccc(C(F)(F)F)c4)cc3)c2)cc1 | 6.46 | pIC50 [2]: 5.79; pIC50 [3]: 5.77; Papp at 16 h, 20 µM [4]: 69 nm/s; Ratio IC50 (Homo sapiens [5]): 5 to 9; Ratio IC50 (Homo sapiens [6]): 5 to 6
8 | CCOS(=O)(=O)/C=C/c1ccc(OCc2ccc(COc3ccc(/C=C/S(=O)(=O)OCC)cc3)c(C(=O)Nc3ccc(Oc4ccccc4)cc3)c2)cc1 | 6.07 | –
9 | CCOS(=O)(=O)/C=C/c1ccc(OCc2ccc(COc3ccc(/C=C/S(=O)(=O)OCC)cc3)c(C(=O)Nc3ccc(Oc4ccc(CC)cc4)cc3)c2)cc1 | 6.72 | pIC50 [2]: 5.88; pIC50 [3]: 5.96; Papp at 16 h, 20 µM [4]: 85 nm/s; Ratio IC50 (Homo sapiens [5]): 5 to 9; Ratio IC50 (Homo sapiens [6]): 5 to 6
10 | CCOS(=O)(=O)/C=C/c1ccc(OCc2ccc(COc3ccc(/C=C/S(=O)(=O)OCC)cc3)c(C(=O)OC)c2)cc1 | 5.47 | –
11 | CCOS(=O)(=O)/C=C/c1ccc(OCc2ccc(COc3ccc(/C=C/S(=O)(=O)OCC)cc3)c(C(=O)Nc3ccc(C(C)C)cc3)c2)cc1 | 5.89 | –
12 | CCOS(=O)(=O)/C=C/c1ccc(OCc2ccc(COc3ccc(/C=C/S(=O)(=O)OCC)cc3)c(C(=O)Nc3ccc(Oc4ccc(-c5ccccc5)cc4)cc3)c2)cc1 | 6.85 | pIC50 [2]: 5.89; pIC50 [3]: 6.04; Papp at 16 h, 20 µM [4]: 97 nm/s; Ratio IC50 (Homo sapiens [5]): 5 to 9; Ratio IC50 (Homo sapiens [6]): 5 to 6
13 | CCOS(=O)(=O)/C=C/c1ccc(OCc2ccc(COc3ccc(/C=C/S(=O)(=O)OCC)cc3)c(C(=O)Nc3ccccc3)c2)cc1 | 5.85 | –
14 | CCOS(=O)(=O)/C=C/c1ccc(OCc2ccc(COc3ccc(/C=C/S(=O)(=O)OCC)cc3)c(C(=O)Nc3ccc(Oc4ccc(Cl)cc4)cc3)c2)cc1 | 6.40 | pIC50 [2]: 5.53; pIC50 [3]: 6.03; Papp at 16 h, 20 µM [4]: 91 nm/s; Ratio IC50 (Homo sapiens [5]): 5 to 9
15 | CCOS(=O)(=O)/C=C/c1ccc(OCc2ccc(COc3ccc(/C=C/S(=O)(=O)OCC)cc3)c(C(=O)Nc3ccc(Oc4cccc(-c5ccccc5)c4)cc3)c2)cc1 | 5.96 | –
16 | CCOS(=O)(=O)/C=C/c1ccc(OCCOc2ccc(/C=C/S(=O)(=O)OCC)cc2)cc1 | 5.52 | –
17 | CCOS(=O)(=O)/C=C/c1ccc(OCc2ccc(COc3ccc(/C=C/S(=O)(=O)OCC)cc3)cc2)cc1 | 5.92 | pIC50 [2]: 5.47; pIC50 [3]: 5.33
18 | CCOS(=O)(=O)/C=C/c1ccc(OCc2ccc(COc3ccc(/C=C/S(=O)(=O)OCC)cc3)c(C(=O)Nc3ccc(Oc4ccccc4C(F)(F)F)cc3)c2)cc1 | 6.06 | –
19 | CCOS(=O)(=O)/C=C/c1ccc(OCCCCOc2ccc(/C=C/S(=O)(=O)OCC)cc2)cc1 | < 4.00 | –
20 | CCOS(=O)(=O)/C=C/c1ccc(OCc2ccc(COc3ccc(/C=C/S(=O)(=O)OCC)cc3)c(C(=O)Nc3ccc(OC)cc3)c2)cc1 | 5.59 | –
21 | CCOS(=O)(=O)/C=C/c1ccc(OCc2ccc(COc3ccc(/C=C/S(=O)(=O)OCC)cc3)c(C(=O)Nc3ccc(Oc4ccc(F)cc4)cc3)c2)cc1 | 5.89 | –
22 | CC(C)NCC(O)COc1cccc2ccccc12 (stereo not given) [PROPRANOLOL] | – | Papp at 16 h, 20 µM [4]: 187 nm/s
23 | CCOS(=O)(=O)/C=C/c1ccc(OCc2ccc(COc3ccc(/C=C/S(=O)(=O)OCC)cc3)c(C(=O)Nc3ccc(Oc4ccc(Br)cc4Cl)cc3)c2)cc1 | 6.80 | pIC50 [2]: 5.84; pIC50 [3]: 5.98; Papp at 16 h, 20 µM [4]: 126 nm/s; Ratio IC50 (Homo sapiens [5]): 5 to 9; Ratio IC50 (Homo sapiens [6]): 5 to 6
24 | CCOS(=O)(=O)/C=C/c1ccc(OCc2ccc(COc3ccc(/C=C/S(=O)(=O)OCC)cc3)c(C(=O)Nc3ccc(F)cc3)c2)cc1 | 5.96 | –
25 | CCOS(=O)(=O)/C=C/c1ccc(OCc2cccc(COc3ccc(/C=C/S(=O)(=O)OCC)cc3)c2)cc1 | 4.74 | –
26 | CCOS(=O)(=O)/C=C/c1ccc(OCc2ccc(COc3ccc(/C=C/S(=O)(=O)OCC)cc3)c(C(=O)O)c2)cc1 | 5.89 | –
27 | CCOS(=O)(=O)/C=C/c1ccc(OCc2ccc(COc3ccc(/C=C/S(=O)(=O)OCC)cc3)c(C(=O)Nc3ccc(Oc4ccc(C(C)C)cc4)cc3)c2)cc1 | 6.12 | –
28 | CCOS(=O)(=O)/C=C/c1ccc(OC2CCC(Oc3ccc(/C=C/S(=O)(=O)OCC)cc3)CC2)cc1 (stereo not given) | 4.53 | –
29 | CCOS(=O)(=O)/C=C/c1ccc(OCc2ccc(COc3ccc(/C=C/S(=O)(=O)OCC)cc3)c(C(=O)Nc3ccc(Oc4ccccc4F)cc3)c2)cc1 | 6.07 | –

From ChEMBL document CHEMBL4038289, “Y-shaped bis-arylethenesulfonic acid esters: Potential potent and membrane permeable protein tyrosine phosphatase 1B inhibitors” (Bioorg Med Chem Lett, 2017)
